The results in this text go back to patent US12692247B2, “Phenyl- and pyridopyrazole derivatives as inhibitors of DDR1” (Redx Pharma Limited, priority 2021, dated 2026).

Test [1] addresses T1, Recombinant human DDR1 (Homo sapiens, UniProt Q08345).
T1 construct: Recombinant human DDR1 (2.5 nM; aa440-876 containing a GST tag)
The experiment in a line: LanthaScreen Eu Kinase Binding Assay, DDR1. To be noted: recombinant human DDR1 (2.5 nM; aa440-876, GST tag), Kinase Tracer 178 5 nM, time-resolved fluorescence, at least two independent replicates; read-out: DDR1 pIC50 (converted). Here is the method:
(§1) DDR1 and DDR2 Biochemical Assay Method
(§2) The capacity of compounds to bind to DDR1 and DDR2 was quantified using a LanthaScreen Eu Kinase Binding Assay. Recombinant human DDR1 (2.5 nM; aa440-876 containing a GST tag) and DDR2 (1.75 nM; aa427-855 containing a GST tag) were diluted in assay buffer (50 mM HEPES pH7.3, 10 mM MgCl2, 1 mM EGTA and 0.01% Tween) with various concentrations of compound in a 384-well plate and a volume of 5 uL. After a 30-minute incubation at room temperature, 2.5 uL of Eu-anti GST antibody (diluted to 1 nM in assay buffer) plus Kinase Tracer 178 (diluted in assay buffer to 5 nM for DDR1 and 10 nM for DDR2) were added to the plate. Following 60-minute incubation at room temperature, time-resolved fluorescence was measured on a BMG Labtech PHERAstar plate reader. DMSO (1%) and reference compound (1 μM) were used to generate the Max and Min assay signals, respectively. Data was analysed using a four-parameter logistic model to calculate IC50 values, with at least two independent replicates were performed for each compound.

The target in test [2] is T2, Recombinant human DDR2 (Homo sapiens, UniProt Q16832).
T2 construct: DDR2 (1.75 nM; aa427-855 containing a GST tag)
T2 sequence (Q16832 427-855): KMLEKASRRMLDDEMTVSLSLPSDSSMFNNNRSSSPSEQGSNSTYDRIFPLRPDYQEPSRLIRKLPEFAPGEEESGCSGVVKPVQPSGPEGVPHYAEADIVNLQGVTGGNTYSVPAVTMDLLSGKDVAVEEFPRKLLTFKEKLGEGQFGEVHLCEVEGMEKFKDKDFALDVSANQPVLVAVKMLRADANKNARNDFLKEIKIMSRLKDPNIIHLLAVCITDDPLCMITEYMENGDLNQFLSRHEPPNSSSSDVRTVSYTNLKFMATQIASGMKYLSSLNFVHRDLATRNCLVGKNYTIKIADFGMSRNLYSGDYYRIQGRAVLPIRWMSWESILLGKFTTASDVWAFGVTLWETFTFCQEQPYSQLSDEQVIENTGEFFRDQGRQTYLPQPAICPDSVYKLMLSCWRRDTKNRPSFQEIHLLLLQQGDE
The test is described as follows: LanthaScreen Eu Kinase Binding Assay, DDR2. To be noted: recombinant human DDR2 (1.75 nM; aa427-855, GST tag), Kinase Tracer 178 10 nM, time-resolved fluorescence, at least two independent replicates; read-out: DDR2 pIC50 (converted). As to the method: as §1, §2

T1 sequence (Q08345 440-876 isoform Q08345-2): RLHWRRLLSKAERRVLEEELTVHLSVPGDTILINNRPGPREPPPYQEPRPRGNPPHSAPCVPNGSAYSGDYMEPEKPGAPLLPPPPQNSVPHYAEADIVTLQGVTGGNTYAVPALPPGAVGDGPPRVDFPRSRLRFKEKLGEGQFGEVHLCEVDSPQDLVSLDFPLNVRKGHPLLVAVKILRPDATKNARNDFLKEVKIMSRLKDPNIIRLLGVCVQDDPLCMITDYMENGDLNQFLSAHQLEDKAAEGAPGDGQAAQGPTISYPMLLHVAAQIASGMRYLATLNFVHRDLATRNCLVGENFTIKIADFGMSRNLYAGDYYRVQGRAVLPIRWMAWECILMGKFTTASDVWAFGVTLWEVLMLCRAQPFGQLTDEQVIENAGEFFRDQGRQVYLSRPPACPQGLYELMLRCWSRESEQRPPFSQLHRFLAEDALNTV

Consider `Cn1ncc2cc(Nc3cccc4ccn(CC(=O)NC(CO)C(F)(F)F)c(=O)c34)ccc21` (stereo not shown) [Example 50, 2-[8-[(1-methylindazol-5-yl)amino]-1-oxo-2-isoquinolyl]-N-[2,2,2-trifluoro-1-(hydroxymethyl)ethyl)acetamide], for which the IC50 in test [1] and in test [2] was not below 1000 nM each time.
On to `CC(C(=O)NCC(F)(F)F)n1ccc2cccc(Nc3ccc4c(cnn4C)c3)c2c1=O` (stereo not shown) [Example 51, 2-[8-[(1-methylindazol-5-yl)amino]-1-oxo-2-isoquinolyl]-N-(2,2,2-trifluoroethyl) propanamide], for which the IC50 in test [1] and in test [2] was not below 1000 nM throughout.
Regarding `O=C(Cn1ccc2cccc(Nc3cc(Cl)c4[nH]ncc4c3)c2c1=O)NCC(F)(F)F` [Example 52, 2-[8-[(7-chloro-1H-indazol-5-yl)amino]-1-oxo-2-isoquinolyl]-N-(2,2,2-trifluoroethyl) acetamide], the figures for the IC50 in test [1] and in test [2] were less than 10 nM and 10 to 100 nM, respectively.
The corresponding values for `Cn1ncc2cc(Nc3cccc4ccn(CC(=O)NCC(C)(C)O)c(=O)c34)ccc21` [Example 54, N-(2-hydroxy-2-methyl-propyl)-2-[8-[(1-methylindazol-5-yl)amino]-1-oxo-2-isoquinolyl]acetamide] are 100 to 1000 nM and not below 1000 nM.
The like results for `COc1ccc(NC(=O)Cn2ccc3cccc(Nc4ccc5c(cnn5C)c4)c3c2=O)cc1` [Example 55, N-(4-methoxyphenyl)-2-[8-[(1-methylindazol-5-yl)amino]-1-oxo-2-isoquinolyl]acetamide] were, in that order, 10 to 100 nM and not below 1000 nM.
Take `COc1cncc(NC(=O)Cn2ccc3cccc(Nc4ccc5c(cnn5C)c4)c3c2=O)c1` [Example 56, N-(5-methoxy-3-pyridyl)-2-[8-[(1-methylindazol-5-yl)amino]-1-oxo-2-isoquinolyl]acetamide]: the IC50 in test [1] and in test [2] was 10 to 100 nM throughout.
On to `Cn1ncc2cc(Nc3cccc4ccn(CC(=O)N[C@@H](C5CC5)C(F)(F)F)c(=O)c34)ccc21` [Example 57, N-[(1S)-1-cyclopropyl-2,2,2-trifluoro-ethyl]-2-[8-[(1-methylindazol-5-yl)amino]-1-oxo-2-isoquinolyl]acetamide], for which the IC50 in test [1] is less than 10 nM; in test [2] it was 10 to 100 nM.
The like results for `Cn1ncc2cc(Nc3cccc4ccn(CC(=O)Nc5ccc(C(F)(F)F)nc5)c(=O)c34)ccc21` [Example 59, 2-[8-[(1-methylindazol-5-yl)amino]-1-oxo-2-isoquinolyl]-N-[6-(trifluoromethyl)-3-pyridyl]acetamide] were, in that order, 10 to 100 nM and 100 to 1000 nM.
As to `Cn1ncc2cc(Nc3cccc4ccn(CC(=O)N5CCC[C@H]5C(C)(C)O)c(=O)c34)ccc21` [Example 60, 2-[2-[(2S)-2-(1-hydroxy-1-methyl-ethyl)pyrrolidin-1-yl]-2-oxo-ethyl]-8-[(1-methylindazol-5-yl)amino]isoquinolin-1-one], the IC50 was 100 to 1000 nM in test [1] and not below 1000 nM in test [2].
The corresponding values for `Cn1ncc2cc(Nc3cccc4ccn(CC(=O)N5CCCC[C@H]5C(F)(F)F)c(=O)c34)ccc21` [Example 61, 8-[(1-methylindazol-5-yl)amino]-2-[2-oxo-2-[(2S)-2-(trifluoromethyl)-1-piperidyl]ethyl]isoquinolin-1-one] are less than 10 nM and 10 to 100 nM.
The corresponding values for `COC(=O)c1cncc(NC(=O)Cn2ccc3cccc(Nc4ccc5c(cnn5C)c4)c3c2=O)c1` [Example 63] are 10 to 100 nM and 10 to 100 nM.
The corresponding values for `Cc1noc(C)c1NC(=O)Cn1ccc2cccc(Nc3ccc4c(cnn4C)c3)c2c1=O` [Example 69, N-(3,5-dimethylisoxazol-4-yl)-2-[8-[(1-methylindazol-5-yl)amino]-1-oxo-2-isoquinolyl]acetamide] are 100 to 1000 nM and 100 to 1000 nM.
`COC(=O)C1CCN(C(=O)Cn2ccc3cccc(Nc4ccc5c(cnn5C)c4)c3c2=O)C1` (stereo not shown) [Example 73, methyl 1-[2-[8-[(1-methylindazol-5-yl)amino]-1-oxo2-isoquinolyl]acetyl]pyrrolidine-3-carboxylate]: the IC50 in test [1] was 100 to 1000 nM; in test [2], not below 1000 nM.
Consider `Cn1ncc2cc(Nc3cccc4ccn(CC(=O)Nc5ccon5)c(=O)c34)ccc21` [Example 74, N-isoxazol-3-yl-2-[8-[(1-methylindazol-5-yl)amino]-1-oxo-2-isoquinolyl]acetamide], for which the IC50 in test [1] is 10 to 100 nM; in test [2], 100 to 1000 nM.
For the compound `CN1CCN(Cc2ccc(NC(=O)Cn3ccc4cccc(Nc5ccc6c(cnn6C)c5)c4c3=O)cc2C(F)(F)F)CC1` [Example 76], the IC50 in test [1] and in test [2] was 10 to 100 nM throughout.
Take `Cn1ccnc1NC(=O)Cn1ccc2cccc(Nc3ccc4c(cnn4C)c3)c2c1=O` [Example 77, N-(1-methylimidazol-2-yl)-2-[8-[(1-methylindazol-5-yl)amino]-1-oxo-2-isoquinolyl]acetamide]: the IC50 in test [1] and in test [2] was not below 1000 nM throughout.
Take `Cn1ncc2cc(Nc3cccc4ccn(CC(=O)N5CCC[C@H]5C(F)(F)F)c(=O)c34)cnc21` [Example 78, 8-[(1-methylpyrazolo[3,4-b]pyridin-5-yl)amino]-2-[2-oxo-2-[(2S)-2-(trifluoromethyl)pyrrolidin-1-yl]ethyl]isoquinolin-1-one]: the IC50 in test [1] was 10 to 100 nM; in test [2] it was 100 to 1000 nM.
The like results for `Cc1cn(-c2cc(NC(=O)Cn3ccc4cccc(Nc5ccc6c(cnn6C)c5)c4c3=O)cc(C(F)(F)F)c2)cn1` [Example 79, N-[3-(4-methylimidazol-1-yl)-5-(trifluoromethyl)phenyl]-2-[8-[(1-methylindazol-5-yl)amino]-1-oxo-2-isoquinolyl]acetamide] were, in that order, 10 to 100 nM and 100 to 1000 nM.
Regarding `CC(=O)C1CCN(C(=O)Cn2ccc3cccc(Nc4ccc5c(cnn5C)c4)c3c2=O)CC1` [Example 80, 2-[2-(4-acetyl-1-piperidyl)-2-oxo-ethyl]-8-[(1-methylindazol-5-yl)amino]isoquinolin-1-one], the IC50 in test [1] is 100 to 1000 nM; in test [2], not below 1000 nM.
The corresponding values for `Cn1cnc(NC(=O)Cn2ccc3cccc(Nc4ccc5c(cnn5C)c4)c3c2=O)c1` [Example 81, N-(1-methylimidazol-4-yl)-2-[8-[(1-methylindazol-5-yl)amino]-1-oxo-2-isoquinolyl]acetamide] are 10 to 100 nM and not below 1000 nM.
The corresponding values for `Cn1ncc2cc(Nc3cccc4ccn(CC(=O)N5CCOCC5C(F)(F)F)c(=O)c34)ccc21` (stereo not shown) [Example 87, 8-[(1-methylindazol-5-yl)amino]-2-[2-oxo-2-[3-(trifluoromethyl)morpholin-4-yl]ethyl]isoquinolin-1-one] are 10 to 100 nM and 100 to 1000 nM.
The corresponding values for `CN(c1ccc2c(cnn2C)c1)c1cccc2ccn(CC(=O)NCC(F)(F)F)c(=O)c12` [Example 88, 2-[8-[methyl-(1-methylindazol-5-yl)amino]-1-oxo-2-isoquinolyl]-N-(2,2,2-trifluoroethyl) acetamide] are 10 to 100 nM and 100 to 1000 nM.
Consider `Cn1ncc2cc(Nc3cccc4ccn(CC(=O)N5CCCCC5)c(=O)c34)ccc21` [Example 93], for which the IC50 in test [1] and in test [2] was 100 to 1000 nM in each case.
As to `Cn1ncc2cc(Nc3cccc4ccn(CC(=O)N5CCCC5)c(=O)c34)ccc21` [Example 94, 8-[(1-methyl-1H-indazol-5-yl)amino]-2-[2-oxo-2-(pyrrolidin-1-yl)ethyl]-1,2-dihydroisoquinolin-1-one], the IC50 is 100 to 1000 nM in test [1] and not below 1000 nM in test [2].
The corresponding values for `Cn1ncc2cc(Nc3cccc4ccn(CC(=O)Nc5cnco5)c(=O)c34)ccc21` [Example 95, 2-{8-[(1-methyl-1H-indazol-5-yl)amino]-1-oxo-1,2-dihydroisoquinolin-2-yl}-N-(1,3-oxazol-5-yl)acetamide] are 10 to 100 nM and 100 to 1000 nM.
As for `C[C@@H]1COC[C@H](C)N1C(=O)Cn1ccc2cccc(Nc3ccc4c(cnn4C)c3)c2c1=O` [Example 96, 2-{2-[(3R,5S)-3,5-dimethylmorphin-4-yl]-2-oxoethyl}-8-[(1-methyl-1H-indazol-5-yl)amino]-1,2-dihydroisoquinolin-1-one], the IC50 in test [1] was 100 to 1000 nM; in test [2], not below 1000 nM.
